Publication PMC9133036 (Nature Communications, 2022)
Numbering of substitutions follows the chain as printed. Where two headings read alike, the source gives them in different places.

Assays:
wakefulness = details: subcutaneous delivery during the sleep period; cited from earlier work
OX2R Y317A = target: T1, OX2R Y317A (Homo sapiens, UniProt O43614, Y317A); test: β-arrestin PathHunter assay, OX2R Y317A; type: cell-based; details: for EC50: β-arrestin recruitment
T1 construct: expressed in transfected cells; host or cells: CHO-K1 stably expressing EA β-arrestin2
T1 sequence (O43614 1-444 Y317A): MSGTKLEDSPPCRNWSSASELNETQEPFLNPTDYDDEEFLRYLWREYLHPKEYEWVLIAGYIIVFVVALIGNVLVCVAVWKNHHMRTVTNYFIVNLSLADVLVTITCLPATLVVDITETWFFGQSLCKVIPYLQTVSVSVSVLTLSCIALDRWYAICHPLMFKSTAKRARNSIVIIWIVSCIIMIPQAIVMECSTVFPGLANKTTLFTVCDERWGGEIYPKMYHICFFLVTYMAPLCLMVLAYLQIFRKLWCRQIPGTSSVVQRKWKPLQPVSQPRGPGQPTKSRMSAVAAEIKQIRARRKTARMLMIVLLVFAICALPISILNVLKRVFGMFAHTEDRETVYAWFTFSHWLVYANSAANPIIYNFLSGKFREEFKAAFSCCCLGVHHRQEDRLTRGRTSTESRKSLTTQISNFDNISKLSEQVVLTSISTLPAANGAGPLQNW
Method: (§1) β-Arrestin recruitment activity was measured by using the PathHunter system (DiscoveRX) according to the manufacturer’s instruction. Receptor constructs used were the full-length wild-type (or mutant) human OX2R sequences cloned into pCMV-ProLink (DiscoveRX). CHO-K1 cells stably expressing EA β-arrestin2 (DiscoveRX) were plated on 384 well white plates (Thermo Fisher) at 4000 cells/well in HamF12 (Wako Pure Chemical Industries) supplemented with 10% fetal bovine serum (Corning) and penicillin-streptomycin (Wako Pure Chemical Industries) and incubated overnight at 37 °C under 5% CO2. Cells were transfected with plasmids encoding wild type or each mutant ProLink-tagged human OX2R using FuGENE HD (Promega). […] Detection reagent was added and incubated for 1 h at room temperature. Luminescent signal was detected using an EnVision plate reader (PerkinElmer). β-arrestin assays on different constructs were performed in two or three independent experiments (each done in quadruplicate). Dose response curves (shown in Supplementary Fig. 8) were fitted to the three-parameter model ‘log(agonist) vs response’ in GraphPad Prism to determine pEC50 values.

OX2R H350A = target: T2, OX2R H350A (Homo sapiens, UniProt O43614, H350A); test: β-arrestin PathHunter assay, OX2R H350A; type: cell-based; details: β-arrestin recruitment
T2 construct: expressed in transfected cells; host or cells: CHO-K1 stably expressing EA β-arrestin2
Method: as §1

OX2R R328A = target: T3, OX2R R328A (Homo sapiens, UniProt O43614, R328A); test: β-arrestin PathHunter assay, OX2R R328A; type: cell-based; details: β-arrestin recruitment
T3 construct: expressed in transfected cells; host or cells: CHO-K1 stably expressing EA β-arrestin2
Method: as §1

OX2R T135A = target: T4, OX2R T135A (Homo sapiens, UniProt O43614, T135A); test: IP accumulation assay, OX2R T135A; type: cell-based
T4 construct: FLAG; expressed in transfected cells; host or cells: HEK293
Source text: The IP assay was adapted from a prior precedent. HEK293 cells were maintained in DMEM-high glucose (Millipore Sigma) supplemented with 5% fetal bovine serum (Corning) and penicillin-streptomycin (Millipore Sigma). Receptor constructs used were the full-length wild-type (or mutant) human OX1R and OX2R sequences cloned into pCDNA3. To enhance the Emax in the IP assay, a plasmid encoding full-length human Gαq subunit[66] was co-transfected into HEK293 cells with plasmids encoding orexin receptor constructs using Lipofectamine 3000 (Thermo Fisher). 24 h after transfection, the cells were plated on poly-D-lysine coated (Millipore Sigma) tissue culture-treated 96 well white plates with clear bottoms (Perkin Elmer) at 30,000 cells per well in Inositol-free DMEM (MP Biomedicals) supplemented with 5% fetal bovine serum, 4 mM L-glutamine (Millipore Sigma), penicillin-streptomycin, and about 5 uCi (5 ul) per ml myo-[2-3H] inositol (Perkin Elmer). The following day, the media was replaced with agonists that were diluted in HBSS (Millipore Sigma) containing 10 mM lithium chloride (Millipore Sigma) and incubated at 37 °C for 45 min. Then agonists were removed and cells were lysed on ice for 30 min with 10 mM formic acid (Millipore Sigma). […] The plates were read on a MicroBeta scintillation counter (Perkin Elmer) the following day. […]

OX2R Q134A = target: T5, OX2R Q134A (Homo sapiens, UniProt O43614, Q134A); test: β-arrestin PathHunter assay, OX2R Q134A; type: cell-based; design: expressed in transfected cells; host or cells: CHO-K1 stably expressing EA β-arrestin2; details: for EC50: β-arrestin recruitment
T5 sequence (O43614 1-444 Q134A): T1 sequence (O43614 1-444 Y317A) with Q134A, A317Y
Method: as §1

[1] = pEC50 ± SEM, read-out: pEC50 (converted)

T4 sequence (O43614 whole entry T135A): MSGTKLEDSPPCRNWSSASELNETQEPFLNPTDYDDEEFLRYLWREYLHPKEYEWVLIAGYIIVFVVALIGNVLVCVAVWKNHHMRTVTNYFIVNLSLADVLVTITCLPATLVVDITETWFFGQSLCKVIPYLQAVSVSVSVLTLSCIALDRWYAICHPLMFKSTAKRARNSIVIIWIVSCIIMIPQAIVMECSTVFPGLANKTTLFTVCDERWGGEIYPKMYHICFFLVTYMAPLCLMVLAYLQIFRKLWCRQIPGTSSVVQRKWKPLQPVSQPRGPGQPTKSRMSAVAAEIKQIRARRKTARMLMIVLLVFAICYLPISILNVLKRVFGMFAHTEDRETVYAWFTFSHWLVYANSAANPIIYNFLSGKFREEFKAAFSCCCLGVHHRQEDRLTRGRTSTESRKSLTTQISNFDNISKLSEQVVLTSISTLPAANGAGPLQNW
T2 sequence (O43614 whole entry H350A): as the sequence (O43614 whole entry T135A) above, with A135T, H350A counted along it
T3 sequence (O43614 whole entry R328A): as the sequence (O43614 whole entry T135A) above, with A135T, R328A counted along it

- β-arrestin recruitment, change on mutation of Tyr317 (OX2R Y317A): large reductions
- EC50 (OX2R Y317A; [1]): > 30.2 µM
- EC50 (OX2R Y317A; read-out: EC50): > 30 µM
- EC50 (OX2R H350A): 4.8 µM
- EC50 (OX2R R328A): 3 µM
- EC50 (OX2R T135A; IP accumulation): 0.58 µM
- Emax (OX2R T135A; relative to OX2R WT/TAK-925): 90
- β-arrestin recruitment, change on mutation of Gln134 (OX2R Q134A): large reductions
- EC50 (OX2R Q134A; [1]): > 30.2 µM
- EC50 (OX2R Q134A; read-out: EC50): > 30 µM
SMILES: COC(=O)N1CCC[C@H](NS(C)(=O)=O)[C@@H]1CO[C@H]1CC[C@@H](c2ccccc2)CC1 [TAK-925, methyl (2R,3S)−3-[(methylsulfonyl)amino]−2-{[(cis−4-phenylcyclohexyl)oxy]methyl}piperidine-1-carboxylate]
- wakefulness and sleep time (wakefulness): dose-dependent increase in wakefulness and reduction in sleep time
